Data: patent US12016847B2, “Methods of treating prostate cancer” (Bristol-Myers Squibb Company, priority 2021, dated 2024)

Tests used:
VCaP cells = assay: Proliferation assay (Cell Titer-Glo), VCaP cells; type: cell-based; details: 3 days
Protocol: (§1) VCaP, LNCaP, 22Rv.1, DU145 and PC3 cancer cell lines were obtained from ATCC. VCaP were cultured in DMEM media supplemented with 8% FBS, LNCaP, 22Rv.1 and DU145 were cultured in RPMI1640 media supplemented with 10% FBS, and PC3 were cultured in F12K media supplemented with 10% FBS.
(§2) Cells were plated in a 96-well format and were allowed to adhere 24 h before treatment. Drugs were titrated 1:3 from 1 μM to 0.1 nM with 9 doses in triplicate. Cell proliferation was measured on the day of treatment (Day 0) and on Day 3 using Cell Titer-Glo reagent (Promega) according to the manufacturer's instructions. Cell growth normalized to the DMSO vehicle control and to Day 0 was fitted by nonlinear regression using GraphPad Prism 7.03 (GraphPad Software, Inc.).

LNCaP cells = assay: Proliferation assay (Cell Titer-Glo), LNCaP cells; type: cell-based, human; details: 3 days of treatment, at 1 uM, related to Day 0 and DMSO
Protocol: as §1, §2

22Rv.1 cells = assay: Proliferation assay (Cell Titer-Glo), 22Rv.1 cells; type: cell-based; details: Homo sapiens, 22Rv1, 72 h, 3 days
Protocol: as §1, §2

DU145 cells = assay: Proliferation assay (Cell Titer-Glo), DU145 cells; type: cell-based; details: 3 days
Protocol: as §1, §2

PC3 cells = assay: Proliferation assay (Cell Titer-Glo), PC3 cells; type: cell-based; details: 3 days
Protocol: as §1, §2

[1] = tested on: Neuroendocrine prostate cancer models; assay: Proliferation assay, all Neuroendocrine prostate cancer models tested (summary); type: cell-based; details: DU145 and PC3 models, summary statement
Protocol: as §1, §2

KLK3 [2] = assay: Gene expression analysis (qPCR), KLK3 in VCaP cells; type: cell-based; details: 48 h
Protocol: as §1
(§3) Cells were plated in a 6-well format and were allowed to adhere 24 h before treatment. Cells were treated for 48 h before collecting them. RNA was purified from cells using the RNeasy kit (Qiagen) according to the manufacturer's instructions. Quantitative RTPCR was performed using the TaqMan assay (Thermo Fisher Scientific) on the ABI QuantStudio 7 Flex Real-Time PCR System.

TMPRSS2 [3] = assay: Gene expression analysis (qPCR), TMPRSS2 in VCaP cells; type: cell-based; details: 48 h
Protocol: as §1, §3

MYC [4] = assay: Gene expression analysis (qPCR), MYC in VCaP cells; type: cell-based; details: 48 h
Protocol: as §1, §3

HEXIM1 [5] = assay: Gene expression analysis (qPCR), HEXIM1 in VCaP cells; type: cell-based; details: 48 h
Protocol: as §1, §3

KLK3 [6] = assay: Gene expression analysis (qPCR), KLK3 in LNCaP cells; type: cell-based, human; details: 48 h
Protocol: as §1, §3

MYC [7] = assay: Gene expression analysis (qPCR), MYC in LNCaP cells; type: cell-based, human; details: 48 h
Protocol: as §1, §3

HEXIM1 [8] = assay: Gene expression analysis (qPCR), HEXIM1 in LNCaP cells; type: cell-based, human; details: 48 h
Protocol: as §1, §3

KLK3 [9] = assay: Gene expression analysis (qPCR), KLK3 in 22Rv.1 cells; type: cell-based; details: 48 h
Protocol: as §1, §3

TMPRSS2 [10] = assay: Gene expression analysis (qPCR), TMPRSS2 in 22Rv.1 cells; type: cell-based; details: 48 h
Protocol: as §1, §3

MYC [11] = assay: Gene expression analysis (qPCR), MYC in 22Rv.1 cells; type: cell-based; details: 48 h
Protocol: as §1, §3

HEXIM1 [12] = assay: Gene expression analysis (qPCR), HEXIM1 in 22Rv.1 cells; type: cell-based; details: 48 h
Protocol: as §1, §3

## Cc1nnn(C)c1-c1cnc2c3ccc(C(C)(C)O)cc3n([C@H](c3ccccc3)C3CCOCC3)c2c1 [Compound A, 2-[3-(1,4-dimethyl-1H-1,2,3-triazol-5-yl)-5-[(S)-(oxan-4-yl)(phenyl)methyl]-5H-pyrido[3,2-b]indol-7-yl]propan-2-ol]
VCaP cells; at 0.1 uM, related to Day 0 and DMSO
  growth arrest of VCaP proliferation: 100%
VCaP cells; at the highest concentrations
  cytotoxic effect on VCaP cells: cytotoxic effects
LNCaP cells
  growth arrest of LNCaP cells: 100%
22Rv.1 cells
  IC50: 1.7 nM
DU145 cells
  reduction of DU145 proliferation: 61.9%
PC3 cells
  reduction of PC3 proliferation: 67%
PC3 cells; Homo sapiens, PC-3, 72 h
  IC50: 4.1 nM
[1]
  reduction of cell proliferation in all Neuroendocrine prostate cancer models tested: ≥ 61.9%
KLK3 [2]; 4 nM
  downregulation of KLK3 compared to DMSO: 96.9%
KLK3 [2]; 40 nM
  downregulation of KLK3 compared to DMSO: 99.4%
TMPRSS2 [3]; 4 nM
  downregulation of TMPRSS2: 32.8%
TMPRSS2 [3]; 40 nM
  downregulation of TMPRSS2: 51.9%
MYC [4]; 4 nM
  reduction in MYC expression: 91.4%
MYC [4]; 40 nM
  MYC downregulation: 95.7%
HEXIM1 [5]; 4 nM
  HEXIM1 upregulated compared to DMSO: 968.0%
HEXIM1 [5]; 40 nM
  HEXIM1 upregulated compared to DMSO: 1257.5%
KLK3 [6]; 4 nM
  downregulation of KLK3: 58.8%
KLK3 [6]; 40 nM
  downregulation of KLK3: 92.0%
MYC [7]; 4 nM
  downregulation of MYC: 84.1%
MYC [7]; 40 nM
  downregulation of MYC: 93.6%
HEXIM1 [8]; 4 nM
  upregulation of HEXIM1: 446.8%
HEXIM1 [8]; 40 nM
  upregulation of HEXIM1: 533.3%
KLK3 [9]; 4 nM
  downregulation of KLK3: 99.9%
KLK3 [9]; 40 nM
  downregulation of KLK3: 99.8%
TMPRSS2 [10]; 4 nM
  reduction of TMPRSS2 compared to DMSO: 97.0%
TMPRSS2 [10]; 40 nM
  reduction of TMPRSS2 compared to DMSO: 97.8%
MYC [11]; 4 nM
  downregulation of MYC: 98.5%
MYC [11]; 40 nM
  downregulation of MYC: 99.3%
HEXIM1 [12]; 4 nM
  induction of HEXIM1: 31%
HEXIM1 [12]; 40 nM
  upregulation of HEXIM1: 91.5%
